From paper PMC1618416, “The Liganding of Glycolipid Transfer Protein Is Controlled by Glycolipid Acyl Structure” (PLoS Biology, 2006)
One block for each compound: values may come before it.

Key:
Assay type in all cases: binding
[1] = target: T1, glycolipid transfer protein (GLTP) (Homo sapiens, UniProt Q9NZD2); assay: X-ray crystal structure; tryptophan fluorescence Kd; parameters: recombinant human GLTP, His6- and S-tags removed by Factor Xa
T1 sequence (Q9NZD2 2-209): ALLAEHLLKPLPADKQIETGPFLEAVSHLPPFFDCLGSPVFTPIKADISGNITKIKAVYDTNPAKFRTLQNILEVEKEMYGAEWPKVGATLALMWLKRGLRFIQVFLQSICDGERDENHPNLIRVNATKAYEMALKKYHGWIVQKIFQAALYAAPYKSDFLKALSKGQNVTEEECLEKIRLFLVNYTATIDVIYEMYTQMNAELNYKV

[2] = target: T1, glycolipid transfer protein (GLTP); assay: tryptophan fluorescence Kd (crystal structure 1SX6 from earlier paper); parameters: recombinant human GLTP
[3] = target: T1, glycolipid transfer protein (GLTP); assay: X-ray crystal structure ([…] Å); tryptophan fluorescence Kd; parameters: recombinant human GLTP, His6- and S-tags removed by Factor Xa
[4] = target: T1, glycolipid transfer protein (GLTP); assay: X-ray crystal structure; parameters: recombinant human GLTP, His6- and S-tags removed by Factor Xa

SMILES: CCCCCCCCCCCCC/C=C/[C@@H](O)[C@H](CO[C@@H]1O[C@H](CO)[C@@H](O[C@@H]2O[C@H](CO)[C@H](O)[C@H](O)[C@H]2O)[C@H](O)[C@H]1O)NC(=O)CCCCCCC [8:0 LacCer, N-octanoyl lactosylsphingosine]
Kd [1]: 0.2 µM

SMILES: CCCCCCCC/C=C\CCCCCCCC(=O)N[C@@H](CO[C@@H]1O[C@H](CO)[C@@H](O[C@@H]2O[C@H](CO)[C@H](O)[C@H](O)[C@H]2O)[C@H](O)[C@H]1O)[C@H](O)/C=C/CCCCCCCCCCCCC [18:1 LacCer, N-cis-9-octadecenoyl lactosylsphingosine]
Kd [2]: 0.27 µM

SMILES: CCCCCCO[C@@H]1O[C@H](CO)[C@@H](O)[C@H](O)[C@H]1O [n-hexyl-β-D-glucoside]
X-ray crystal structure [4]: The sugar headgroup of n-hexyl-β-D-glucoside binds the GLTP recognition center in a manner similar to all GSL-GLTP complexes

Now from value to compound:

Kd [1]: 0.2 µM
SMILES: CCCCC/C=C\C/C=C\CCCCCCCC(=O)N[C@@H](CO[C@@H]1O[C@H](CO)[C@H](O)[C@H](O)[C@H]1O)[C@H](O)/C=C/CCCCCCCCCCCCC [18:2 GalCer, N-cis-N-cis-9,12-octadecenoyl galactosyl-sphingosine]

Kd [3]: 0.25 µM
SMILES: CCCCCCCC/C=C\CCCCCCCCCCCCCC(=O)N[C@@H](CO[C@@H]1O[C@H](CO)[C@H](O)[C@H](O)[C@H]1O)[C@H](O)/C=C/CCCCCCCCCCCCC [24:1 GalCer, N-cis-15-tetracosenoyl galactosyl-sphingosine]
